Experimental data reported in patent publication US5010058A, “3,5,6-substituted derivatives of 1,2-O-isopropylidene-α,D-glucofuranose and intermediates for preparing these derivatives” (501 Greenwich Pharmaceuticals Incorporated, priority 1989, dated 1991).
Like-named read-outs stand apart in the source and are kept apart here.

System: normal spleen cells / splenic T-lymphocytes (Con-A stimulated)
Experiment: Con-A blastogenic response of normal spleen cells (3H-thymidine incorporation)
Type: cell-based, mouse (C57Bl/6)
Conditions: for Blastogenic response of normal spleen cells to Con-A; % effect / inhibition at 1 µg/mL / inhibition at 10 µg/mL / inhibition at 25 µg/mL / inhibition at 100 µg/mL / inhibition at 300 µg/mL / inhibition at 750 µg/mL: percent change from no compound; for Blastogenic response of normal spleen cells to Con-A; % effect: 4320 min; for Blastogenic response of normal spleen cells to Con-A: triplicates ± SD; for inhibition at 1 µg/mL / inhibition at 10 µg/mL / inhibition at 25 µg/mL / inhibition at 100 µg/mL / inhibition at 300 µg/mL / inhibition at 750 µg/mL: Mus musculus, T-lymphocyte, 72 h, read-out: Blastogenic response of normal spleen cells to Con-A, % effect
From the text: A simple method is used to screen compounds for their ability to modulate T-lymphocyte activity which comprises assessing the capacity of the compounds to alter the activation of murine spleen cells in response to T-lymphocyte mitogen activators, such as concanavalin-A (Con-A). The method used to measure the effects of the compounds of the present invention on the blastogenic response of spleen cells to the T-lymphocyte mitogen, (i.e., Con-A), is as follows.
Spleen cells were removed from normal C57Bl/6 mice and homogenized to obtain a single cell suspension. Erythrocytes were lysed by hypotonic shock. Upon determination of the viability and concentration of the remaining lymphoid cells, they were adjusted to a concentration of 4×10^6 /ml. These spleen cells (2×10^5 cells per […]) were seeded into wells of microtiter plates with the compounds of the present invention having the following dose concentrations:
Con-A was also added to these cultures at a final concentration of […]. These cells were cultured for 3 days at 37° C. in a humidified atmosphere of 5% CO2 in air. For the last 18 hours of culture, […] H-thymidine was added to each well. The cells were then precipitated by a multichannel harvester. The amount of ^3 H-thymidine incorporated by the cultured cells were measured in a liquid scintillation counter (Disintegrations per min., DPM). All assays were conducted in triplicate.
The incubation medium used for the blastogenesis assays was RPMI-1640 medium containing 10% fetal bovine serum, […] streptomycin, 100 U/ml penicillin, […] Hepes buffer solution, 5×10^-5 M 2-mercaptoethanol and 2 mM glutamine.
^a Experimental compounds were first suspended in DMSO or ethanol,
^b The effect of experimental compounds on the blastogenic response o

[1] = Con-A 1 ug/ml, compound 1 ug/ml
[2] = Con-A 1 ug/ml, compound 10 ug/ml
[3] = Con-A 1 ug/ml, compound 25 ug/ml
[4] = Con-A 1 ug/ml, compound 100 ug/ml
[5] = Con-A 1 ug/ml, compound 300 ug/ml
[6] = Con-A 1 ug/ml, compound 750 ug/ml
[7] = Con-A 4 ug/ml, compound 1 ug/ml
[8] = Con-A 4 ug/ml, compound 10 ug/ml
[9] = Con-A 4 ug/ml, compound 25 ug/ml
[10] = Con-A 4 ug/ml, compound 100 ug/ml
[11] = Con-A 4 ug/ml, compound 300 ug/ml
[12] = Con-A 4 ug/ml, compound 750 ug/ml

In the case of CCCCCCCNC[C@H]1OC(C)(C)O[C@@H]2[C@H]3OC(C)(C)O[C@H]3O[C@@H]21 [Ex. 1, 1,2:3,5-Di-O-isopropylidene-6-deoxy-6-aminoheptyl-α, D-glucofuranose], the “Blastogenic response of normal spleen cells to Con-A; % effect” value (shortened to “Blastogenic response … % effect”) [1] is reported as “+29%”, the “Blastogenic response of normal spleen cells to Con-A” value [1] is reported as 93,328 ± 15,583 cpm and the “Blastogenic response … % effect” value [2] is reported as -26%. For the same compound, the “Blastogenic response of normal spleen cells to Con-A” value [2] was 53,439 ± 9,464 cpm, the “Blastogenic response … % effect” value [3] was -63% and the “Blastogenic response of normal spleen cells to Con-A” value [3] was 26,920 ± 10,528 cpm. The “Blastogenic response … % effect” value [4] was -85%, the “Blastogenic response of normal spleen cells to Con-A” value [4] was 10,705 ± 9,501 cpm and the “Blastogenic response … % effect” value [5] was -93%. For the same compound, the “Blastogenic response of normal spleen cells to Con-A” value [5] was 5,398 ± 4,008 cpm, the “Blastogenic response … % effect” value [6] was -87% and the “Blastogenic response of normal spleen cells to Con-A” value [6] was 19,688 ± 7,148 cpm. The “Blastogenic response … % effect” value [7] was “+20%”, the “Blastogenic response of normal spleen cells to Con-A” value [7] was 116,263 ± 2,521 cpm and the “Blastogenic response … % effect” value [8] was -67%. For the same compound, the “Blastogenic response of normal spleen cells to Con-A” value [8] was 32,032 ± 1,999 cpm, the “Blastogenic response … % effect” value [9] was -94% and the “Blastogenic response of normal spleen cells to Con-A” value [9] was 6,201 ± 1,410 cpm. For the same compound, the “Blastogenic response … % effect” value [10] was -95%, the “Blastogenic response of normal spleen cells to Con-A” value [10] was 4,880 ± 3,619 cpm and the “Blastogenic response … % effect” value [11] was -97%. The “Blastogenic response of normal spleen cells to Con-A” value [11] was 3,097 ± 573 cpm, the “Blastogenic response … % effect” value [12] was -98% and the “Blastogenic response of normal spleen cells to Con-A” value [12] was 2,089 ± 35 cpm.
CCCCCCCNCC(O)C1OC2OC(C)(C)OC2C1OCCCCCCC [Ex. 4, 1,2-O-Isopropylidene-3-O-(n-heptyl)-6-deoxy-6-aminoheptyl-α, D-glucofuranose] was tested, and the “Blastogenic response of normal spleen cells to Con-A” value [1] was 22,026 ± 9,838 cpm, the “Blastogenic response of normal spleen cells to Con-A” value [2] was 3,406 ± 422 cpm and the “Blastogenic response of normal spleen cells to Con-A” value [3] was 3,575 ± 827 cpm. For the same compound, the “Blastogenic response of normal spleen cells to Con-A” value [4] was 5,241 ± 2,071 cpm, the “Blastogenic response of normal spleen cells to Con-A” value [5] was 9,102 ± 6,857 cpm and the “Blastogenic response of normal spleen cells to Con-A” value [6] was 3,762 ± 1,201 cpm. For the same compound, the “Blastogenic response of normal spleen cells to Con-A” value [7] was 41,151 ± 9,885 cpm, the “Blastogenic response of normal spleen cells to Con-A” value [8] was 7,789 ± 7,636 cpm and the “Blastogenic response of normal spleen cells to Con-A” value [9] was 13,114 ± 8,696 cpm. The “Blastogenic response of normal spleen cells to Con-A” value [10] was 7,102 ± 6,851 cpm, the “Blastogenic response of normal spleen cells to Con-A” value [11] was 4,919 ± 645 cpm and the “Blastogenic response of normal spleen cells to Con-A” value [12] was 3,128 ± 99 cpm. It also gave an inhibition at 1 µg/mL [1] of 70%, an inhibition at 10 µg/mL [2] of 95% and an inhibition at 25 µg/mL [3] of 95%. The inhibition at 100 µg/mL [4] was 93%, the inhibition at 300 µg/mL [5] was 87% and the inhibition at 750 µg/mL [6] was 95%. The inhibition at 1 µg/mL [7] was 58%, the inhibition at 10 µg/mL [8] was 92% and the inhibition at 25 µg/mL [9] was 86%. It also gave an inhibition at 100 µg/mL [10] of 93%, an inhibition at 300 µg/mL [11] of 95% and an inhibition at 750 µg/mL [12] of 97%.
CCCCCCCOC(C)C1OC2OC(C)(C)OC2C1O [Ex. 5, 1,2-O-Isopropylidene-5-O-n-heptyl-6-deoxy α, D-glucofuranose] was tested, and the “Blastogenic response of normal spleen cells to Con-A” value [1] was 91,612 ± 15,530 cpm, the “Blastogenic response of normal spleen cells to Con-A” value [2] was 79,822 ± 15,967 cpm and the “Blastogenic response of normal spleen cells to Con-A” value [3] was 63,177 ± 13,102 cpm. The “Blastogenic response of normal spleen cells to Con-A” value [4] was 8,553 ± 9,274 cpm, the “Blastogenic response of normal spleen cells to Con-A” value [5] was 8,698 ± 786 cpm and the “Blastogenic response of normal spleen cells to Con-A” value [6] was 9,487 ± 7,951 cpm. For the same compound, the “Blastogenic response of normal spleen cells to Con-A” value [7] was 116,377 ± 12,433 cpm, the “Blastogenic response of normal spleen cells to Con-A” value [8] was 92,190 ± 13,256 cpm and the “Blastogenic response of normal spleen cells to Con-A” value [9] was 62,068 ± 3,736 cpm. For the same compound, the “Blastogenic response of normal spleen cells to Con-A” value [10] was 2,299 ± 490 cpm, the “Blastogenic response of normal spleen cells to Con-A” value [11] was 5,932 ± 2,770 cpm and the “Blastogenic response of normal spleen cells to Con-A” value [12] was 4,494 ± 2,952 cpm. It also gave an inhibition at 1 µg/mL [1] of -27%, an inhibition at 10 µg/mL [2] of -11% and an inhibition at 25 µg/mL [3] of 13%. It also gave an inhibition at 100 µg/mL [4] of 88%, an inhibition at 300 µg/mL [5] of 88% and an inhibition at 750 µg/mL [6] of 87%. The inhibition at 1 µg/mL [7] was -20%, the inhibition at 10 µg/mL [8] was 5% and the inhibition at 25 µg/mL [9] was 36%. For the same compound, the inhibition at 100 µg/mL [10] was 98%, the inhibition at 300 µg/mL [11] was 94% and the inhibition at 750 µg/mL [12] was 95%.
With CCCCCCCOC(C)C1OC2OC(C)(C)OC2C1OCCCN(C)C [Ex. 6, 1,2-O-Isopropylidene-3-O-3'-(N'-N'-dimethylaminopropyl)-5-O-n-heptyl-6-deoxy-α,D-glucofuranose] the “Blastogenic response of normal spleen cells to Con-A” value [1] was 86,406 ± 16,348 cpm, the “Blastogenic response of normal spleen cells to Con-A” value [2] was 12,670 ± 6,997 cpm and the “Blastogenic response of normal spleen cells to Con-A” value [3] was 5,399 ± 3,253 cpm. The “Blastogenic response of normal spleen cells to Con-A” value [4] was 6,597 ± 2,887 cpm, the “Blastogenic response of normal spleen cells to Con-A” value [5] was 3,693 ± 340 cpm and the “Blastogenic response of normal spleen cells to Con-A” value [6] was 3,709 ± 281 cpm. The “Blastogenic response of normal spleen cells to Con-A” value [7] was 75,689 ± 8,498 cpm, the “Blastogenic response of normal spleen cells to Con-A” value [8] was 4,693 ± 1,930 cpm and the “Blastogenic response of normal spleen cells to Con-A” value [9] was 6,187 ± 6,859 cpm. For the same compound, the “Blastogenic response of normal spleen cells to Con-A” value [10] was 6,741 ± 4,224 cpm, the “Blastogenic response of normal spleen cells to Con-A” value [11] was 3,756 ± 923 cpm and the “Blastogenic response of normal spleen cells to Con-A” value [12] was 2,933 ± 1,383 cpm. It also gave an inhibition at 1 µg/mL [1] of -20%, an inhibition at 10 µg/mL [2] of 82% and an inhibition at 25 µg/mL [3] of 93%. For the same compound, the inhibition at 100 µg/mL [4] was 91%, the inhibition at 300 µg/mL [5] was 95% and the inhibition at 750 µg/mL [6] was 95%. For the same compound, the inhibition at 1 µg/mL [7] was 22%, the inhibition at 10 µg/mL [8] was 95% and the inhibition at 25 µg/mL [9] was 94%. For the same compound, the inhibition at 100 µg/mL [10] was 93%, the inhibition at 300 µg/mL [11] was 96% and the inhibition at 750 µg/mL [12] was 97%.
